Assays:
TRAMP-C2 cells = assay: Incidence of MI, AP and PY in TRAMP-C2 cells (H2B-GFP) by fluorescent microscopy; type: cell-based, mouse; details: for AP (×10^−3) / MI (×10^−3) / PY (×10^−3): RPMI without phenol red, no FCS
From the text: At each time point, two peripheral and two central ×20 fields of the tumor are captured with a FITC filter and an integrated frame grabber. Only mitotic figures in metaphase-telophase (MI) are included in the mitotic indices to exclude the potential artifact of nuclear membrane distortion. Apoptotic/Pyknotic nuclei are defined as H2B-GFP labeled nuclei with a cross sectional area <30 μm^2. Nuclear karyorrhexis (NK), easily distinguishable by the vesicular nuclear condensation and brightness of H2BGFP, is included within this apoptotic indices.
For example, TRAMP-C2 cells (transfected with H2B-GFP) were plated at 2.08×10^4 cells/cm^2 density in complete RPMI medium (10% of heat-inactivated FCS, 10^−8 M DHT, 5 μg/ml insulin, 6 ng/ml EGF, 100 U/ml penicillin, 100 μg/ml streptomycin, 2 mM L-glutamine) and grown at 37° C. in a humidified 5% CO2 atmosphere overnight. The cells were 3× washed with PBS and medium was replaced for RPMI medium without phenol red and without FCS. One set of cells had no DHT, the other set was incubated in the presence of DHT 10^−8 M overnight. 24 h later, the medium was replaced for medium (RPMI without phenol red, no FCS) containing increasing concentrations of plumbagin in the range 0-1 μM with DHT 10^−8 M or without DHT. 24 h later the incidence of MI, AP, and PY was evaluated by fluorescent microscopy.

[1] = type: physicochemical
Method: Plumbagin was formulated as an inclusion complex with heptakis(2,6-di-O-methyl)-beta-cyclodextrin. In brief, a super-saturated solution of plumbagin in 0.1M of heptakis(2,6-di-O-methyl)-beta-cyclodextrin was stirred for 72 hours at 25+/−0.5° C. Then the mixture was filtered through a 0.2 µm nylon membrane filter. The concentration of solubilized plumbagin has been determined by UV-VIS spectroscopy (Amax(263 nm and 417 nm)).

fibrosarcomas = details: in vivo; cited from earlier work
[2] = system: P388 lymphocytic leukemia; details: in vivo; cited from earlier work
hepatoma = details: in vivo; cited from earlier work
[3] = system: hormone-refractory prostate cancer; details: Aziz et al., Cancer Res. 2008; cited from earlier work
tubulin [4] = details: Acharya et al., Biochemistry 2008; cited from earlier work
tubulin [5] = details: Acharya et al., Biochemistry 2008; cited from earlier work; remark: listed apart in the source
prostate carcinoma cells = details: plumbagin 5 umol/L; cited from earlier work

Which “AP (×10^−3)” value (TRAMP-C2 cells; DHT 0.01 μM) does the source give for `C[C@]12CCC(=O)C[C@@H]1CC[C@@H]1[C@@H]2CC[C@]2(C)[C@@H](O)CC[C@@H]12` [DHT, dihydrotestosterone, reference compound] here?
The value was 13.8 ×10^−3.

And the “MI (×10^−3)” value (TRAMP-C2 cells; DHT 0.01 μM)?
The value was 4.911 ×10^−3.

What about the “PY (×10^−3)” value (TRAMP-C2 cells; DHT 0.01 μM) of the same molecule?
Its value is 0.8681 ×10^−3.

With `CC1=CC(=O)c2c(O)cccc2C1=O` [Plumbagin, 5-hydroxy-2-methylnaphthalene-1,4-dione] as the molecule, how does the “induction of cell cycle entry / mitosis compared with DHT” value (TRAMP-C2 cells; 0.6 μM of plumbagin vs DHT at 10^−8 M) read?
The value was “much more effectively than DHT at 10^−8 M”.

What about the “AP (×10^−3)” value (TRAMP-C2 cells; plumbagin 0.4 μM, 24 h) of the same molecule?
The value was 8.852 ×10^−3.

What about the “MI (×10^−3)” value (TRAMP-C2 cells; plumbagin 0.4 μM, 24 h) of the same molecule?
Its value is 8.89 ×10^−3.

What about the “PY (×10^−3)” value (TRAMP-C2 cells; plumbagin 0.4 μM, 24 h) of the same molecule?
Its value is 20.495 ×10^−3.

What about the “AP (×10^−3)” value (TRAMP-C2 cells; plumbagin 0.6 μM, 24 h) of the same molecule?
Its value is 9.371 ×10^−3.

And the “MI (×10^−3)” value (TRAMP-C2 cells; plumbagin 0.6 μM, 24 h)?
Its value is 14.81 ×10^−3.

And the “PY (×10^−3)” value (TRAMP-C2 cells; plumbagin 0.6 μM, 24 h)?
Its value is 16.76 ×10^−3.

What about the “AP (×10^−3)” value (TRAMP-C2 cells; plumbagin 0.8 μM, 24 h) of the same molecule?
The value was 16.11 ×10^−3.

And the “MI (×10^−3)” value (TRAMP-C2 cells; plumbagin 0.8 μM, 24 h)?
Its value is 12.7 ×10^−3.

What about the “PY (×10^−3)” value (TRAMP-C2 cells; plumbagin 0.8 μM, 24 h) of the same molecule?
Its value is 16.73 ×10^−3.

What about the “AP (×10^−3)” value (TRAMP-C2 cells; plumbagin 1 μM, 24 h) of the same molecule?
The value was 14.22 ×10^−3.

And the “MI (×10^−3)” value (TRAMP-C2 cells; plumbagin 1 μM, 24 h)?
Its value is 7.285 ×10^−3.

What about the “PY (×10^−3)” value (TRAMP-C2 cells; plumbagin 1 μM, 24 h) of the same molecule?
The value was 8.244 ×10^−3.

What about the “K1:1 (phase-solubility diagram analysis)” value [1] of the same molecule?
Its value is 485 M⁻¹.

And the “ED50 anticancer effect toward fibrosarcomas” value (fibrosarcomas)?
The value was 0.75 mg/kg body weight.

And the “ED50 anticancer effect toward P388 lymphocytic leukemia” value [2]?
Its value is 4 mg/kg body weight.

What about the effect on hepatoma (hepatoma) of the same molecule?
Its effect on hepatoma is “induced regression of hepatoma”.

And the “effect on hormone-refractory prostate cancer” value [3]?
The value was “inhibited growth and invasion of hormone-refractory prostate cancer”.

What about the tubulin binding site (tubulin [4]) of the same molecule?
The tubulin binding site was “recognizes the colchicine binding site of tubulin”.

What about the “in vitro tubulin polymerization” value (tubulin [5]) of the same molecule?
Its value is “inhibits in vitro tubulin polymerization”.

What about the “expression of PKCq, PI3K, AKT, activation of AP-1, NF-κB, Stat3” value (prostate carcinoma cells) of the same molecule?
Its value is “inhibit expression of multiple molecular targets”.

From patent US20160022606A1, “NOVEL THERAPY FOR PROSTATE CARCINOMA” (PELLFICURE PHARMACEUTICALS INC., priority 2013, published 2016)
